Counter-ions that a name gives are not always drawn.
Tests used:
human H4 receptor [1] = target: T1, human H4 receptor (Homo sapiens, UniProt Q9H3N8); assay: GTPγ[35S] binding assay on membranes of SH-SY5Y cells stably expressing human H4 receptor; assay type: biochemical
T1 construct: expressed in transfected cells
Experimental: SH-SY5Y cells stably expressing human H4 receptor are grown until sub-confluence and centrifuged at 300 g 15 minutes at 4° C. Pellets are resuspended in buffer I Tris-HCl 50 mM, MgCl2 10 mM, NaCl 140 mM, pH=7.4 supplemented by Leupeptin 10 μg/mL, Phenyl Methyl Sulphonyl Fluoride (PMSF) 0.1 mM, Aprotinin 2 μg/mL and Pepstatin 2 μM (or a 1/50 dilution of a mix of protease inhibitors). The obtained suspension is stirred gently and submitted to a […] exerted through a syringe. The cell lysate is then centrifuged at 300 g 15 minutes at 4° C. in order to eliminate nucleus and cell scraps. The obtained supernatant is then centrifuged at 48000 g for 30 minutes at 4° C. The final pellet is resuspended in buffer I with a potter homogenizer. Aliquots are frozen in liquid nitrogen and stored until use at −80° C. Protein content is measured by the Bradford method.
Defreezed membranes are diluted at a final concentration of 5 μg/180 μL/well in buffer I supplemented by GDP 10 μM and distributed in 96 well polystyrene microplate. GTPγ [^35S] labelled ligand (0.2-0.3 nM) is added for additional 30 minutes. After transfer in a Millipore GF/C HTS® microplate, the filtration of the rectional mix is followed by a three times 250 μl wash to stop the reaction.
The filter-bound radioactivity is measured in a liquid scintillation counter Microbeta TRILUX® with 50 μl of scintillation fluid.
Results are expressed with IC50 and Ki values.

human H4 receptor [2] = target: T1, human H4 receptor; assay: [3H]Histamine binding assay on membranes of CHO cells stably expressing human H4 receptor
Experimental: CHO cells stably expressing human H4 receptor were grown until sub-confluence and centrifuged at 300 g 15 minutes at 4° C. Pellets were resuspended in buffer I Tris-HCl 50 mM, MgCl2 10 mM, NaCl 140 mM, pH=7.4 supplemented by a 1/50 dilution of a mix of protease inhibitors. The obtained suspension is stirred gently and submitted to a […] exerted through a syringe. The cell lysate is then centrifuged at 300 g 15 minutes at 4° C. in order to eliminate nucleus and cell scraps. The obtained supernatant was then centrifuged at 48000 g for 30 minutes at 4° C. The final pellet is resuspended in buffer I with a potter homogenizer. Aliquots were frozen in liquid nitrogen and stored until use at −80° C. Protein content is measured by the Bradford method.
Defreezed membranes were diluted at a final concentration of 20 μg/180 μL/well in a binding buffer containing 50 mM Tris/HCl, 0.5 mM EDTA, pH=7.4 and distributed in 96 well polystyrene microplate. [^3H] […] Non specific binding was estimated in the presence of 10 μM BP1.2404 (JNJ 7777120). The reaction was terminated by filtration through GF/B filters pre-soaked 2 hours at 4° C. in 1% polyethyleneimine. Filters were rinsed 3 times with 250 μl of ice cold incubation binding buffer.
The filter-bound radioactivity was measured in a liquid scintillation counter Microbeta TRILUX® with 50 μl of scintillation fluid.
The hH4 binding investigated by use of [^3H]

T1 sequence (Q9H3N8 whole entry): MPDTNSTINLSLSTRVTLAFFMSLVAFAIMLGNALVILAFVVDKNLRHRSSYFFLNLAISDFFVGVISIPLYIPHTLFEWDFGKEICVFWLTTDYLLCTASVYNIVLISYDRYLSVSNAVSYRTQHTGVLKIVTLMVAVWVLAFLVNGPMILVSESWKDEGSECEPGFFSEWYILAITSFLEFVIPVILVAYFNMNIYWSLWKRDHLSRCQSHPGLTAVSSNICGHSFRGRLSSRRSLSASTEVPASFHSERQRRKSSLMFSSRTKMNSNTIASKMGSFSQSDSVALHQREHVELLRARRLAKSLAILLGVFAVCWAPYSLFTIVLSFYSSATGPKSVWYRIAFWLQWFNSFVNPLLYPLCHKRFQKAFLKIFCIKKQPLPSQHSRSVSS

| Structure (SMILES) | IC50 (human H4 receptor [1]) | Ki (human H4 receptor [2]) | melting point |
| --- | --- | --- | --- |
| CN1CCC(OC(c2cccc(C#CCCCCN)c2)c2ccccn2)CC1 (stereo not shown) [Example 5, 6-{3-[(1-Methylpiperidin-4-yloxy)pyridin-2-ylmethyl]phenyl}hex-5-ynylamine, oxalate] | < 300 nM | < 300 nM |  |
| CN1CCC(OC(c2ccc(Cl)cc2)c2cccc(C#CCCCCN)c2)CC1 (stereo not shown) [Example 36, 6-{3-[(4-Chlorophenyl)(1-methylpiperidin-4-yloxy)methyl]phenyl}hex-5-ynylamine, dioxalate] | < 30 nM | < 30 nM |  |
| CN1CCC(OC(c2ccc(Cl)cn2)c2cc(OC(F)(F)F)ccc2F)CC1.O=C(O)C(=O)O (stereo not shown) [Example 4, 5-Chloro-2-[(2-fluoro-5-trifluoromethoxyphenyl)(1-methylpiperidin-4-yloxy)methyl]pyridine, oxalate] | < 300 nM | < 300 nM | 75 °C |
| CN1CCC(OC(c2ccncc2)c2cc(OC(F)(F)F)ccc2F)CC1.O=C(O)C(=O)O.O=C(O)C(=O)O (stereo not shown) [Example 6, 4-[(2-Fluoro-5-trifluoromethoxyphenyl)(1-methylpiperidin-4-yloxy)methyl]pyridine, dioxalate] |  | < 300 nM | 61 °C |
| Cc1ccc(C(OC2CCN(C)CC2)c2ccc(F)cn2)c(O)c1.O=C(O)C(=O)O (stereo not shown) [Example 24, 2-[(5-Fluoropyridin-2-yl)(1-methylpiperidin-4-yloxy)methyl]-5-methylphenol, oxalate] |  | < 30 nM | 77 °C |
| Cc1ccc(C(OC2CCN(C)CC2)c2ccc(Cl)cc2)c(F)c1.O=C(O)C(=O)O (stereo not shown) [Example 34, 4-[(4-Chlorophenyl)(2-fluoro-4-methylphenyl)methoxy]-1-methylpiperidine, oxalate] |  | < 300 nM | 165 °C |
| CN1CCC(OC(c2ccccn2)c2ccccc2O)CC1 (stereo not shown) [Example 19, 2-[(1-Methylpiperidin-4-yloxy)pyridin-2-ylmethyl]phenol, oxalate] |  | < 300 nM |  |
| CN1CCC(OC(c2ccc(Cl)cc2)c2cc(OC(F)(F)F)ccc2F)CC1.O=C(O)C(=O)O (stereo not shown) [Example 33, 4-[(4-Chlorophenyl)(2-fluoro-5-trifluoromethoxyphenyl)methoxy]-1-methylpiperidine, oxalate] | < 300 nM | < 300 nM | 117 °C |
| Cc1ccc(C(OC2CCN(C)CC2)c2cc(C(F)(F)F)ccn2)c(F)c1.O=C(O)C(=O)O (stereo not shown) [Example 14, 2-[(2-Fluoro-4-methylphenyl)(1-methylpiperidin-4-yloxy)methyl]-4-trifluoromethylpyridine, oxalate] |  | < 300 nM | 104 °C |
| CN1CCC(OC(c2ccc(F)cn2)c2ccc(F)c(F)c2O)CC1 (stereo not shown) [Example 15, 2,3-Difluoro-6-[(5-fluoropyridin-2-yl)(1-methylpiperidin-4-yloxy)methyl]phenol] |  | < 1000 nM | 73 °C |
| Cc1ccc(C(OC2CCN(C)CC2)c2ccc(Cl)cn2)c(F)c1.O=C(O)C(=O)O (stereo not shown) [Example 2, 5-Chloro-2-[(2-fluoro-4-methylphenyl)(1-methylpiperidin-4-yloxy)methyl]pyridine, oxalate] | < 300 nM | < 30 nM | 165 °C |
| Cc1ccnc(C(OC2CCN(C)CC2)c2cc(OC(F)(F)F)ccc2F)c1.O=C(O)C(=O)O.O=C(O)C(=O)O (stereo not shown) [Example 8, 2-[(2-Fluoro-5-trifluoromethoxyphenyl)(1-methylpiperidin-4-yloxy)methyl]-4-methylpyridine, dioxalate] |  | < 300 nM | 43 °C |
| Cc1ccc(C(OC2CCN(C)CC2)c2ccc(Cl)cn2)c(O)c1.O=C(O)C(=O)O (stereo not shown) [Example 25, 2-[(5-Chloropyridin-2-yl)(1-methylpiperidin-4-yloxy)methyl]-5-methylphenol, oxalate] |  | < 30 nM | 77 °C |
| CN1CCC(OC(c2ccccn2)c2ccccc2O)CC1 (stereo not shown) (as salt: oxalate) [Example 19, 2-[(1-Methylpiperidin-4-yloxy)pyridin-2-ylmethyl]phenol, oxalate] |  |  | 70 °C |
| CN1CCC(OC(c2ccc(F)cn2)c2ccc(F)cc2O)CC1.O=C(O)C(=O)O (stereo not shown) [Example 20, 5-Fluoro-2-[(5-fluoropyridin-2-yl)(1-methylpiperidin-4-yloxy)methyl]phenol, oxalate] |  | < 300 nM | 105 °C |
| Cc1ccc(C(OC2CCN(C)CC2)c2ccccn2)c(F)c1.O=C(O)C(=O)O.O=C(O)C(=O)O (stereo not shown) [Example 3, 2-[(2-Fluoro-4-methylphenyl)(1-methylpiperidin-4-yloxy)methyl]pyridine, dioxalate] |  | < 300 nM | 59 °C |
| Cc1ccc(C(OC2CCN(C)CC2)c2ccc(Cl)cn2)c(O)c1F (stereo not shown) [Example 22, 6-[(5-Chloropyridin-2-yl)(1-methylpiperidin-4-yloxy)methyl]-2-fluoro-3-methylphenol] |  | < 30 nM | 67 °C |
| CN1CCC(OC(c2cccc(I)c2)c2ccccn2)CC1 (stereo not shown) [Example 37, 2-[(3-Iodophenyl)(1-methylpiperidin-4-yloxy)methyl]pyridine, oxalate] |  | < 1000 nM |  |
| CN1CCC(OC(c2ccc(Cl)cn2)c2ccc(F)cc2O)CC1 (stereo not shown) [Example 23, 2-[(5-Chloropyridin-2-yl)(1-methylpiperidin-4-yloxy)methyl]-5-fluorophenol] |  | < 30 nM | 57 °C |
| Cc1ccc(C(OC2CCN(C)CC2)c2cccc(I)c2)cc1.O=C(O)C(=O)O (stereo not shown) [Example 27, 4-[(3-Iodophenyl)-p-tolylmethoxy]-1-methylpiperidine, oxalate] |  | < 1000 nM | 60 °C |
| Cc1ccc(C(OC2CCN(C)CC2)c2cc(F)ccn2)c(O)c1F (stereo not shown) [Example 26, 2-Fluoro-6-[(4-fluoropyridin-2-yl)(1-methylpiperidin-4-yloxy)methyl]-3-methylphenol] |  | < 300 nM | 64 °C |
| Cc1ccc(C(OC2CCN(C)CC2)c2ccc(F)cn2)c(O)c1F (stereo not shown) [Example 21, 2-Fluoro-6-[(5-fluoropyridin-2-yl)(1-methylpiperidin-4-yloxy)methyl]-3-methylphenol] |  | < 300 nM | 62 °C |
| CCOC(=O)NCCCCC#Cc1cccc(C(OC2CCN(C)CC2)c2ccccn2)c1.O=C(O)C(=O)O (stereo not shown) [Example 17, (6-{3-[(1-Methylpiperidin-4-yloxy)pyridin-2-ylmethyl]phenyl}hex-5-ynyl)carbamic acid ethyl ester, oxalate] |  | < 1000 nM | 77 °C |
| COc1cccc(C(OC2CCN(C)CC2)c2ccc(Cl)cn2)c1.O=C(O)C(=O)O (stereo not shown) [Example 12, 5-Chloro-2-[(3-methoxyphenyl)(1-methylpiperidin-4-yloxy)methyl]pyridine, oxalate] |  | < 1000 nM | 175 °C |
| Cc1ccc(C(OC2CCN(C)CC2)c2ccc3ccccc3c2)c(F)c1.O=C(O)C(=O)O (stereo not shown) [Example 29, 4-[(2-Fluoro-4-methylphenyl)naphthalen-2-yl-methoxy]-1-methylpiperidine, oxalate] | < 1000 nM |  | 122 °C |
| CN1CCC(OC(c2ccc(Cl)cn2)c2ccc(F)c(F)c2O)CC1 (stereo not shown) [Example 16, 6-[(5-Chloropyridin-2-yl)(1-methylpiperidin-4-yloxy)methyl]-2,3-difluorophenol] |  | < 300 nM | 68 °C |
| CN1CCC(OC(c2ccc(Cl)cc2)c2ccc(Cl)cn2)CC1.O=C(O)C(=O)O (stereo not shown) [Example 9, 5-Chloro-2-[(4-chlorophenyl)(1-methylpiperidin-4-yloxy)methyl]pyridine, oxalate] |  | < 300 nM | 190 °C |
| CN1CCC(OC(c2cccc(I)c2)c2ccc(Cl)cn2)CC1.O=C(O)C(=O)O (stereo not shown) [Example 13, 5-Chloro-2-[(3-iodophenyl)(1-methylpiperidin-4-yloxy)methyl]pyridine, oxalate] |  | < 300 nM | 130 °C |
| CN1CCC(OC(c2ccc(F)cn2)c2cc(OC(F)(F)F)ccc2F)CC1.O=C(O)C(=O)O (stereo not shown) [Example 11, 5-Fluoro-2-[(2-fluoro-5-trifluoromethoxyphenyl)(1-methylpiperidin-4-yloxy)methyl]pyridine, oxalate] |  | < 1000 nM | 113 °C |

— patent US9242959B2, “(Aza)benzhydryl ether derivatives, their process of preparation and their use as H4-receptor ligands for therapeutical applications” (BIOPROJET, priority 2012, dated 2016)
